Assay results taken from US20110152093A1, “Herbicidal compositions comprising flufenacet” (Bayer CropScience AG, priority 2009, published 2011).

Key:
Format in all cases: in vivo
LOLPE (Lolium perenne) [1] = assay: PE action under various irrigation conditions, test method 6; conditions: PE application, g of AS/ha: (A) 90, (B) 1200, (C) 140, (A)+(B)+(C) 90 + 1200 + 140
Experimental: (§1) In the standard design of the test, seeds of various broad-leaved weed and weed grass biotypes (origins) were sown in a 8-13 cm diameter pot filled with natural soil of a standard field soil (loamy silt; non-sterile) and covered with a covering soil layer of about 1 cm. The pots were then cultivated in a greenhouse (12-16 h of light, temperature day 20-22° C., night 15-18° C.) until the time of application. The pots were treated on a laboratory track sprayer with spray liquors comprising the compositions according to the invention, mixtures of the prior art or components used individually. Application of the active compounds or active compound combinations formulated as WG, WP, EC or otherwise was carried out at the appropriate growth stages of the plants. The application rate for the spray application was 100-600 l of water/ha. After the treatment, the plants were returned to the greenhouses.
(§2) About 3 weeks after the application, the soil action or/and foliar action was assessed visually according to a scale of 0-100% in comparison to an untreated comparative group: 0%=no noticeable effect compared to the untreated comparative group; 100%=full effect compared to the untreated comparative group.
(§3) (notes: the term “seeds” also includes vegetative propagation forms such as, for example, rhizome pieces; abbreviations used: h light=hours of illumination, g of AS/ha=gram of active substance per hectare, l/ha=liter per hectare, S=sensitive, R=resistant) • 1. Pre-emergence action against weeds: seeds of various broad-leaved weed and weed grass biotypes (origins) were sown in a 8-13 cm diameter pot filled with natural soil of a standard field soil (loamy silt; non-sterile) and covered with a covering soil layer of about 1 cm. The pots were then cultivated in a greenhouse (12-16 h of light, temperature day 20-22° C., night 15-18° C.) until the time of application. The pots were treated at the BBCH stage 00-10 of the seeds/plants on a laboratory track sprayer with spray liquors comprising the compositions according to the invention, mixtures or components used individually, as WG, WP, EC or other formulations. The application rate for the spray application was 100-600 l of water/ha. After the treatment, the plants were returned to the greenhouses and, when required, treated with fertilizer and watered. • 2. Post-emergence action against weeds: seeds of various broad-leaved weed and weed grass biotypes (origins) were sown in a 8-13 cm diameter pot filled with natural soil of a standard field soil (loamy silt; non-sterile) and covered with a covering soil layer of about 1 cm. The pots were then cultivated in a greenhouse (12-16 h of light, temperature day 20-22° C., night 15-18° C.) until the time of application. The pots were treated at various BBCH stages between 11-25 of the seeds/plants, i.e. generally between two to three weeks after the start of the cultivation, on a laboratory track sprayer with spray liquors comprising the compositions according to the invention, mixtures or components used individually, as WG, WP, EC or other formulations. The application rate for the spray application was 100-600 l of water/ha. After the treatment, the plants were returned to the greenhouses and, when required, treated with fertilizer and watered. • 3. Selective pre-emergence action: seeds of various crop species (origins) were sown in a 8-13 cm diameter pot filled with natural soil of a standard field soil (loamy silt; non-sterile) and covered with a covering soil layer of about 1 cm. The pots were then cultivated in a greenhouse (12-16 h of light, temperature day 20-22° C., night 15-18° C.) until the time of application. The pots were treated at the BBCH stage 00-10 of the seeds/plants on a laboratory track sprayer with spray liquors comprising the compositions according to the invention, mixtures or components used individually, as WG, WP, EC or other formulations. The application rate for the spray application was 100-600 l of water/ha. […]

[2] = system: MATCH (Matricaria chamomilla); assay: as above; conditions: PE application; irrigation from below; g of AS/ha: (A) 90, (B) 1200, (C) 140, (A)+(B)+(C) 90 + 1200 + 140
Experimental: as §1, §2, §3

[3] = system: HORVS (Hordeum vulgare, summer barley); assay: Selective post-emergence action (crop compatibility), greenhouse trial, test method 4; conditions: PO application; g of AS/ha: (A) 240, (B) 1200, (C) 140, (A)+(B)+(C) 240 + 1200 + 140
Experimental: as §1, §2
(notes: the term “seeds” also includes vegetative propagation forms such as, for example, rhizome pieces; abbreviations used: h light=hours of illumination, g of AS/ha=gram of active substance per hectare, l/ha=liter per hectare, S=sensitive, R=resistant) • 1. Pre-emergence action against weeds: seeds of various broad-leaved weed and weed grass biotypes (origins) were sown in a 8-13 cm diameter pot filled with natural soil of a standard field soil (loamy silt; non-sterile) and covered with a covering soil layer of about 1 cm. The pots were then cultivated in a greenhouse (12-16 h of light, temperature day 20-22° C., night 15-18° C.) until the time of application. […]

[4] = system: ALOMY sensitive (Alopecurus myosuroides); assay: PE action on resistant weed biotypes, test method 8; conditions: PE application; g of AS/ha: (A) 90, (B) 1200, (C) 140, (A)+(B)+(C) 90 + 1200 + 140, iodosulfuron 10
Experimental: as §1, §2, §3

[5] = system: ALOMY resistant (Alopecurus myosuroides); assay: as above; conditions: PE application; g of AS/ha: (A) 90, (B) 1200, (C) 140, (A)+(B)+(C) 90 + 1200 + 140, iodosulfuron 10
Experimental: as §1, §2, §3

[6] = system: LOLSS sensitive (Lolium species); assay: as above; conditions: PE application; g of AS/ha: (A) 90, (B) 1200, (C) 140, (A)+(B)+(C) 90 + 1200 + 140, iodosulfuron 10
Experimental: as §1, §2, §3

LOLPE (Lolium perenne) [7] = assay: Pre-sowing application action against weeds (7 days prior to sowing), test method 5; conditions: application 7 days prior to sowing; g of AS/ha: (A) 90, (B) 1200, (C) 140, (A)+(B)+(C) 90 + 1200 + 140
Experimental: as §1, §2
(notes: the term “seeds” also includes vegetative propagation forms such as, for example, rhizome pieces; abbreviations used: h light=hours of illumination, g of AS/ha=gram of active substance per hectare, l/ha=liter per hectare, S=sensitive, R=resistant) • 1. Pre-emergence action against weeds: seeds of various broad-leaved weed and weed grass biotypes (origins) were sown in a 8-13 cm diameter pot filled with natural soil of a standard field soil (loamy silt; non-sterile) and covered with a covering soil layer of about 1 cm. The pots were then cultivated in a greenhouse (12-16 h of light, temperature day 20-22° C., night 15-18° C.) until the time of application. The pots were treated at the BBCH stage 00-10 of the seeds/plants on a laboratory track sprayer with spray liquors comprising the compositions according to the invention, mixtures or components used individually, as WG, WP, EC or other formulations. The application rate for the spray application was 100-600 l of water/ha. After the treatment, the plants were returned to the greenhouses and, when required, treated with fertilizer and watered. • 2. Post-emergence action against weeds: seeds of various broad-leaved weed and weed grass biotypes (origins) were sown in a 8-13 cm diameter pot filled with natural soil of a standard field soil (loamy silt; non-sterile) and covered with a covering soil layer of about 1 cm. The pots were then cultivated in a greenhouse (12-16 h of light, temperature day 20-22° C., night 15-18° C.) until the time of application. […]

AVEFA (Avena fatua) = assay: PE action at different soil pH values, test method 10; conditions: PE application, g of AS/ha: (A) 90, (B) 1200, (C) 140, (A)+(B)+(C) 90 + 1200 + 140
Experimental: as §1, §2

[8] = system: HORVS (Hordeum vulgare, summer barley); assay: Action under various soil conditions (soil types), test method 7, crop compatibility; conditions: IU/EC73 soil versus IU soil; g of AS/ha: (A) 90, (B) 1200, (C) 140, (A)+(B)+(C) 90 + 1200 + 140
Experimental: as §1, §2
(§4) (notes: the term “seeds” also includes vegetative propagation forms such as, for example, rhizome pieces; abbreviations used: h light=hours of illumination, g of AS/ha=gram of active substance per hectare, l/ha=liter per hectare, S=sensitive, R=resistant) • 1. Pre-emergence action against weeds: seeds of various broad-leaved weed and weed grass biotypes (origins) were sown in a 8-13 cm diameter pot filled with natural soil of a standard field soil (loamy silt; non-sterile) and covered with a covering soil layer of about 1 cm. The pots were then cultivated in a greenhouse (12-16 h of light, temperature day 20-22° C., night 15-18° C.) until the time of application. The pots were treated at the BBCH stage 00-10 of the seeds/plants on a laboratory track sprayer with spray liquors comprising the compositions according to the invention, mixtures or components used individually, as WG, WP, EC or other formulations. The application rate for the spray application was 100-600 l of water/ha. After the treatment, the plants were returned to the greenhouses and, when required, treated with fertilizer and watered. • 2. Post-emergence action against weeds: seeds of various broad-leaved weed and weed grass biotypes (origins) were sown in a 8-13 cm diameter pot filled with natural soil of a standard field soil (loamy silt; non-sterile) and covered with a covering soil layer of about 1 cm. The pots were then cultivated in a greenhouse (12-16 h of light, temperature day 20-22° C., night 15-18° C.) until the time of application. The pots were treated at various BBCH stages between 11-25 of the seeds/plants, i.e. generally between two to three weeks after the start of the cultivation, on a laboratory track sprayer with spray liquors comprising the compositions according to the invention, mixtures or components used individually, as WG, WP, EC or other formulations. The application rate for the spray application was 100-600 l of water/ha. After the treatment, the plants were returned to the greenhouses and, when required, treated with fertilizer and watered. • 3. […]

[9] = system: MATCH (Matricaria chamomilla); assay: Action under various soil conditions (soil types), test method 7; conditions: g of AS/ha: (A) 90, (B) 1200, (C) 140, (A)+(B)+(C) 90 + 1200 + 140
Experimental: as §1, §2, §3

VIOAR (Viola arvensis) = assay: Post-emergence (PO) action against weeds, greenhouse trial, test method 2; conditions: PO application; g of AS/ha: (A) 240, (B) 1200, (C) 140, (A)+(B)+(C) 240 + 1200 + 140
Experimental: as §1, §2, §4

CC(C)N(C(=O)COc1nnc(C(F)(F)F)s1)c1ccc(F)cc1 [(A) flufenacet, N-(4-fluorophenyl)-N-(1-methylethyl)-2-[[5-(trifluoromethyl)-1,3,4-thiadiazol-2-yl]oxy]acetamide]
activity LOLPE (LOLPE (Lolium perenne) [1]; irrigation from above): 82% | activity LOLPE (LOLPE (Lolium perenne) [1]; irrigation from below): 75% | activity MATCH [2]: 15% | activity HORVS (crop plant; visual, scale 0-100%) [3]: 60% | activity ALOMY sensitive [4]: 80% | activity ALOMY resistant [5]: 68% | activity LOLSS sensitive [6]: 5% | activity LOLPE (LOLPE (Lolium perenne) [7]): 93% | activity AVEFA pH 7.4 (AVEFA (Avena fatua); soil pH 7.4): 80% | activity AVEFA pH 8.4 (AVEFA (Avena fatua); soil pH 8.4): 55% | Difference of the soil types, HORVS [8]: −10% | activity MATCH IU soil ([9]; IU soil): 28% | Difference of the soil types, MATCH ([9]; IU/EC73 soil versus IU soil): −23% | activity MATCH IU/EC73 soil ([9]; IU/EC73 soil): 5% | activity VIOAR (visual, scale 0-100%) (VIOAR (Viola arvensis)): 50%
